Assay results as given in the CheMixHub viscosity set.
Several values for one entry are separate records, joined by “and”; a condition that tells them apart may be missing. Equal entries are not always repeated. ± gives the uncertainty stated by the source.

Experiment: xn = mol fraction of the nth substance listed

C[N+](C)(C)CCO.[Cl-] + OCCO
Settings	viscosity
293.15 K, 100 kPa, x1 = 0.333	40.01 ± 0.53 mPa·s
293.15 K, 100 kPa, x1 = 0.34	59.14 ± 2.4 mPa·s
293.15 K, 101 kPa, x1 = 0.333	42.3 ± 3.4 mPa·s
293.15 K, 101 kPa, x2 = 0.7	56.22 ± 1.2 mPa·s
293.15 K, 101.3 kPa, x2 = 0.6675	60 ± 2.5 mPa·s
293.15 K, 101.3 kPa, x2 = 0.7	53.07 ± 0.32 mPa·s
293.15 K, 101.3 kPa, x2 = 0.7499	37.35 ± 1.6 mPa·s
293.15 K, 101.3 kPa, x2 = 0.7999	31.8 ± 1.3 mPa·s
293.15 K, 101.3 kPa, x2 = 0.8332	28.49 ± 1.2 mPa·s
293.15 K, 101.3 kPa, x2 = 0.8571	25.56 ± 1.1 mPa·s
298 K, 100 kPa, x1 = 0.333	45.1 ± 3.7 mPa·s
298 K, 101 kPa, x1 = 0.333	42 ± 3 mPa·s
298.15 K, 100 kPa, x1 = 0.333	41 ± 1 mPa·s and 32.73 ± 0.44 mPa·s
298.15 K, 100 kPa, x1 = 0.34	47.74 ± 1.9 mPa·s
298.15 K, 101 kPa, x1 = 0.2	20.1 ± 0.8 mPa·s
298.15 K, 101 kPa, x1 = 0.333	35.1 ± 1.4 mPa·s
298.15 K, 101.1 kPa, x1 = 0.333	39.45 ± 8.3 mPa·s
298.15 K, 101.3 kPa, x2 = 0.6675	48.59 ± 2 mPa·s
298.15 K, 101.3 kPa, x2 = 0.7	43.03 ± 0.49 mPa·s
298.15 K, 101.3 kPa, x2 = 0.7499	31.12 ± 1.3 mPa·s
298.15 K, 101.3 kPa, x2 = 0.7999	26.21 ± 1.1 mPa·s
298.15 K, 101.3 kPa, x2 = 0.8332	23.36 ± 0.97 mPa·s
298.15 K, 101.3 kPa, x2 = 0.8571	20.93 ± 0.87 mPa·s
298.15 K, 101.33 kPa, x2 = 0.7	48 ± 5 mPa·s
298.2 K, 101.3 kPa, x1 = 0.1247	20.5 ± 0.8 mPa·s
298.2 K, 101.3 kPa, x1 = 0.1675	23.2 ± 0.9 mPa·s
298.2 K, 101.3 kPa, x1 = 0.2	24.5 ± 1 mPa·s
298.2 K, 101.3 kPa, x1 = 0.2513	27.2 ± 1.1 mPa·s
303 K, 100 kPa, x1 = 0.333	36.8 ± 3 mPa·s
303 K, 101 kPa, x1 = 0.3333	51.8 ± 1.5 mPa·s
303.15 K, 100 kPa, x1 = 0.333	27.13 ± 0.36 mPa·s and 52.15 ± 2.1 mPa·s
303.15 K, 100 kPa, x1 = 0.34	39.1 ± 1.6 mPa·s
303.15 K, 101 kPa, x1 = 0.333	33.1 ± 2.7 mPa·s
303.15 K, 101 kPa, x2 = 0.7	35 ± 10 mPa·s and 37.15 ± 0.78 mPa·s
303.15 K, 101.3 kPa, x2 = 0.6675	39.78 ± 1.7 mPa·s
303.15 K, 101.3 kPa, x2 = 0.7	35.06 ± 0.4 mPa·s
303.15 K, 101.3 kPa, x2 = 0.7499	25.72 ± 1.1 mPa·s
303.15 K, 101.3 kPa, x2 = 0.7999	21.7 ± 0.9 mPa·s
303.15 K, 101.3 kPa, x2 = 0.8332	19.36 ± 0.8 mPa·s
303.15 K, 101.3 kPa, x2 = 0.8571	17.34 ± 0.72 mPa·s
308 K, 100 kPa, x1 = 0.333	30.8 ± 2.5 mPa·s
308 K, 101 kPa, x1 = 0.3333	45.7 ± 1 mPa·s
308.15 K, 100 kPa, x1 = 0.333	22.76 ± 0.3 mPa·s
308.15 K, 100 kPa, x1 = 0.34	32.42 ± 1.3 mPa·s
308.15 K, 101 kPa, x1 = 0.3333	30.9 ± 1 mPa·s
308.15 K, 101.3 kPa, x2 = 0.6675	33.15 ± 1.4 mPa·s
308.15 K, 101.3 kPa, x2 = 0.7	29.02 ± 0.33 mPa·s
308.15 K, 101.3 kPa, x2 = 0.7499	21.63 ± 0.91 mPa·s
308.15 K, 101.3 kPa, x2 = 0.7999	18.29 ± 0.75 mPa·s
